These results are taken from BindingDB's records for doi:10.7270/Q24F1P57 (Nmmlsc, 2009).

The assay deals with Induced myeloid leukemia cell differentiation protein Mcl-1 (Homo sapiens, UniProt Q07820). The assay is described as follows: Mcl-1/Bim interaction regulators – biochemical, bead-based flow cytometry, multiplex, HTS hits, confirmation (AID 2086). (In general: In flow cytometry, cells or beads pass a laser one at a time.)
Where [1] appears, read: inactive by the depositor's call.

Sequence of Induced myeloid leukemia cell differentiation protein Mcl-1 (Q07820 whole entry): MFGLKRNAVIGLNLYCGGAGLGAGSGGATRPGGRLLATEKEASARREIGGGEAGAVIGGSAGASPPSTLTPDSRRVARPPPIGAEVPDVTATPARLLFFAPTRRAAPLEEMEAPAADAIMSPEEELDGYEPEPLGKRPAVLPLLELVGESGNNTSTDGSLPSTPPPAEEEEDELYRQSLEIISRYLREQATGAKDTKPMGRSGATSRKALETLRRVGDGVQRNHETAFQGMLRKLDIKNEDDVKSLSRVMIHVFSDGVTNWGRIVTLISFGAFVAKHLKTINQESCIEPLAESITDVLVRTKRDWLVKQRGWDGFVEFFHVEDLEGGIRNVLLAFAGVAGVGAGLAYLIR

In general, EC50 refers to the midpoint of the concentration-response curve. Higher therefore signals weaker potency. For the compound `O=C(NCc1ccccc1)c1ccc2nc(-c3ccco3)c(-c3ccco3)nc2c1` [2,3-bis(furan-2-yl)-N-(phenylmethyl)quinoxaline-6-carboxamide], the EC50 under setting [1] turned out to be 16 µM.
As for `COc1ccc(N2C(=O)C(Cl)=C(Oc3cccc(OC)c3)C2=O)cc1` [3-chloro-4-(3-methoxyphenoxy)-1-(4-methoxyphenyl)-1H-pyrrole-2,5-dione], a half-maximal effect under setting [1] (EC50) was put at 1.65 µM.
Turning to `CNC1CCC(Br)CC(C(=O)C=Cc2cccc(OC)c2OC)C1=O` (centres undefined) [4-bromo-2-[(E)-3-(2,3-dimethoxyphenyl)-1-oxoprop-2-enyl]-7-(methylamino)-1-cycloheptanone], under setting [1], the response was half-maximal at 37.4 µM (EC50). This EC50 lies about 23-fold higher than the previous one.
The compound `COc1cc(/N=C2\SSNC2Cl)c(OC)cc1Cl` (centres undefined) [4-chloro-N-(4-chloro-2,5-dimethoxyphenyl)-5-dithiazolidinimine] displayed an EC50 under setting [1] of 21.5 µM.
Under setting [1], `Cc1ccc(-c2nc3c(c(=O)[nH]c(=O)n3Cc3ccccc3)n2C)o1` [7-methyl-8-(5-methyl-2-furanyl)-3-(phenylmethyl)purine-2,6-dione] showed an EC50 of 34.2 µM. This EC50 lies about 1.6-fold higher than the previous one.
Under setting [1], `O=C1NC(=O)C2(Cc3c(nc4ccccn4c3=O)N3CCCCCC32)C(=O)N1Cc1ccccc1` (centres undefined) [MLS000083668] showed an EC50 of 3.18 µM.
As for `COc1ccc(CCNC(=O)c2ccc3nc(-c4ccco4)c(-c4ccco4)nc3c2)cc1OC` [N-[2-(3,4-dimethoxyphenyl)ethyl]-2,3-di-2-furylquinoxaline-6-carboxamide], the EC50 under setting [1] came out at 14.8 µM. Against the preceding compound, the EC50 is about 4.7-fold higher.
On to `Cc1cc2nn(-c3cccc4ccccc34)nc2cc1N` [SMR000076237], for which the concentration giving a half-maximal response (EC50) under setting [1] is 2.25 µM.
`Cc1ccc(C=NNC(=O)CSc2nnc(-c3ccc(Cl)cc3)n2-c2ccccc2)o1` [SMR000218122] had an EC50 of 7.75 µM.
